According to the supplement of paper PMC3493320:

Test system: NCI-H295R
Assay: IC50 (antiproliferative, ATP content)
Conditions: 48 h
Method in brief: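 In 1536-well plates, 1500 adrenocortical carcinoma cells per well were grown overnight in serum-free, ITS-supplemented DMEM before compounds were pin-transferred at 8 final concentrations (0.6 nM to 46 µM). After 48 h at 37 °C and 5% CO2, CellTiter-Glo luminescence was read following 20 min at room temperature and normalised to vehicle and positive-control wells. IC50 values came from logistic curve fits, with compounds lacking any concentration response listed as above the top dose.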

Compound | IC50 [µM]
CC(=O)NC(=O)c1ccccc1O | > 46
O=C(NCC1CCCCN1)c1cc(OCC(F)(F)F)ccc1OCC(F)(F)F (configuration not stated) | > 46
NC[C@H]1O[C@H](O[C@H]2[C@H](O)[C@@H](O[C@H]3O[C@H](CO)[C@@H](O)[C@H](N)[C@H]3O)[C@H](N)C[C@@H]2N)[C@H](O)[C@@H](O)[C@@H]1O.O=S(=O)(O)O | > 46
Cc1cnc(C(=O)O)c[n+]1[O-] | > 46
OC[C@H]1O[C@@](CO)(O[C@H]2O[C@H](CO)[C@@H](O)[C@H](O)[C@H]2O)[C@@H](O)[C@@H]1O | > 46
O=NN(CCCl)C(=O)NC1CCCCC1 | > 46
Cl.NCC(O)c1cccc(O)c1 (configuration not stated) | > 46
CN(C)CCN(Cc1cccs1)c1ccccn1.Cl | > 46
COC1=CC=C2[C@H]3Cc4ccc(OC)c5c4[C@@]2(CCN3C)[C@H]1O5 | > 46
Cl.O=c1n(CCCN2CCN(c3cccc(Cl)c3)CC2)nc2ccccn12 | > 46
CCOC(=O)c1ccccc1O | > 46
COC(=O)c1cncn1C(C)c1ccccc1.Cl (configuration not stated) | > 46
C[C@]12C=CC(=O)C=C1[C@@H](F)C[C@@H]1[C@@H]2[C@@H](O)C[C@@]2(C)[C@H]1CC[C@]2(O)C(=O)CO | > 46
Cl.Clc1ccc(Cn2c(CN3CCCC3)nc3ccccc32)cc1 | > 46
O.O=S(=O)([O-])CC(S)CS.[Na+] (configuration not stated) | > 46
CC[N+]1(C)CCCC(OC(=O)C(O)(c2ccccc2)c2ccccc2)C1.[Br-] (configuration not stated) | > 46
CCOCCn1c(N2CCCN(C)CC2)nc2ccccc21.O=C(O)/C=C/C(=O)O.O=C(O)/C=C/C(=O)O | > 46
CN1CCN(C(=O)O[C@H]2c3nccnc3C(=O)N2c2ccc(Cl)cn2)CC1 | > 46
CC(C)Cc1ccc(C(C)C(=O)O)cc1 (configuration not stated) | > 46
CC(=O)NCCCS(=O)(=O)[O-].CC(=O)NCCCS(=O)(=O)[O-].[Ca+2] | > 46
CCSc1ccc2c(c1)N(CCCN1CCN(C)CC1)c1ccccc1S2.O=C(O)CC(O)C(=O)O.O=C(O)CC(O)C(=O)O | > 46
Cl.O=S(=O)(c1cccc2cnccc12)N1CCCNCC1 | > 46
O=[C@@](OCN2C(N(CC#C)CC2=O)=O)[C@H]1C(C)(C)[C@@H]1\C=C(C)/C | > 46
Cc1c(NC(C)C)c(=O)n(-c2ccccc2)n1C | > 46
CNC[C@H](O)c1cccc(O)c1.Cl | > 46

Compound | IC50 [µM]
C#C[C@]1(O)CC[C@H]2[C@@H]3CCC4=C(CCC(=O)C4)[C@H]3CC[C@@]21C | > 46
Cn1nnc2c(C(N)=O)ncn2c1=O | > 46
CC(=O)[C@@]3(O)CC[C@H]4[C@@H]5/C=C(/Cl)\C2=C\C(=O)[C@@H]1C[C@@H]1[C@]2(C)[C@H]5CC[C@]34C | > 46
O=C([O-])C[C@H](O)C[C@H](O)/C=C/c1c(C2CC2)nc2ccccc2c1-c1ccc(F)cc1.O=C([O-])C[C@H](O)C[C@H](O)/C=C/c1c(C2CC2)nc2ccccc2c1-c1ccc(F)cc1.[Ca+2] | > 46
CC(=O)Oc1ccc(C2(c3ccc(OC(C)=O)cc3)C(=O)Nc3ccccc32)cc1 | > 46
COc1ccc(C(=O)/C(Br)=C\C(=O)O)cc1 | > 46
CC(C)Cc1ccc(CC(=O)O)cc1 | > 46
CCOC(=O)OC(C)OC(=O)[C@@H]1N2C(=O)[C@@H](NC(=O)[C@H](N)c3ccccc3)[C@H]2SC1(C)C.Cl (some centres not stated) | > 46
Cc1[nH]c(=O)c(C#N)cc1-c1ccncc1 | > 46
CCOc1cc(-c2nccc3cc(OC)c(OC)cc23)cc(OCC)c1OCC | > 46
CN1C(=O)CN=C(c2ccccc2)c2cc([N+](=O)[O-])ccc21 | > 46
C[N+]1(CCC(C(N)=O)(c2ccccc2)c2ccccc2)CCCCC1.[Br-] | > 46
C[C@]12C[C@H](O)[C@H]3[C@@H](CCC4=CC(=O)CC[C@@]43C)[C@@H]1CC[C@H]2C(=O)CO | > 46
CCCn1c(=O)[nH]c(=O)c2[nH]cnc21 | > 46
OC1OC[C@@H](O)[C@H](O)[C@@H]1O (some centres not stated) | > 46
CCCCCCCCCCCCCCCCCC(=O)O | > 46
CCn1nc(C(=O)O)c(=O)c2cc3c(cc21)OCO3 | > 46
FC(F)(F)C(F)(F)C(F)(F)C(F)(F)C(F)(F)F | > 46
CN1CCC[C@@H]1Cc1c[nH]c2ccc(CCS(=O)(=O)c3ccccc3)cc12 | > 46
NC(=O)CS(=O)C(c1ccccc1)c1ccccc1 (configuration not stated) | > 46
CCOC(=O)C1=C[C@@H](OC(CC)CC)[C@H](NC(C)=O)[C@@H](N)C1.O=C(O)C(O)C(O)C(=O)O | > 46
CC(=O)Nc1cccc(O)c1 | > 46
CCCCOC(=O)c1ccc(O)cc1 | > 46
Cl.N=C(N)n1cccn1 | > 46
CN1CCN(CCC(=O)N2c3ccccc3Sc3ccc(C(F)(F)F)cc32)CC1 | > 46

Compound | IC50 [µM]
C=C1CC[C@@H]2[C@](C)(CO)[C@H](O)CC[C@@]2(C)[C@@H]1C/C=C1/C(=O)OC[C@H]1O | > 46
COc1cc(OC)c(C(=O)CCCN2CCCC2)c(OC)c1.Cl | > 46
O=C(c1ccccc1)C(O)c1ccccc1 (configuration not stated) | > 46
O[C@@H]1CO[C@H]2[C@@H]1OC[C@@H]2O | > 46
CC(C)n1c(/C=C/[C@@H](O)C[C@@H](O)CC(=O)[O-])c(-c2ccc(F)cc2)c2ccccc21.[Na+] | > 46
CC(=O)OCC(=O)[C@@]1(O)CC[C@H]2[C@@H]3CCC4=CC(=O)CC[C@]4(C)C3=CC[C@@]21C | > 46
Cc1c(I)c(=O)n(-c2ccccc2)n1C | > 46
C[C@@H](O)[C@H](N)C(=O)O | > 46
NS(=O)(=O)c1cc2c(cc1Cl)NC(Cc1ccccc1)NS2(=O)=O (configuration not stated) | > 46
Cc1noc(NS(=O)(=O)c2ccc(N)cc2)c1C | > 46
C[C@H](O)CN(C)C | > 46
CN1[C@@H]2CC[C@H]1C[C@@H](OC(c1ccccc1)c1ccccc1)C2.CS(=O)(=O)O | > 46
CCN1C[C@]2(COC)[C@H](O)C[C@H](OC)[C@@]34[C@@H]5C[C@@]6(O)[C@H](OC(=O)c7ccccc7)[C@@H]5[C@@](OC(C)=O)([C@@H]([C@H](OC)[C@H]23)[C@H]14)[C@@H](O)[C@@H]6OC | > 46
O=[N+]([O-])C(Br)(CO)CO | > 46
CCOc1ccc(NC(C)=O)cc1 | > 46
CC1CS(=O)(=O)CCN1/N=C/c1ccc([N+](=O)[O-])o1 (configuration not stated) | > 46
O=C1CN=C(c2ccccc2)c2cc([N+](=O)[O-])ccc2N1 | > 46
Cc1ccc(S(=O)(=O)NC(=O)N[C@@H](C)Cc2ccccc2)cc1 | > 46
CC(C)=O | > 46
CC1(C)O[C@@H]2C[C@H]3[C@@H]4C[C@H](F)C5=CC(=O)CC[C@]5(C)[C@H]4[C@@H](O)C[C@]3(C)[C@]2(C(=O)CO)O1 | > 46
CCCOC(=O)c1ccc(N)cc1 | > 46
O[C@](CN2N=CN=C2)([C@H]([C@@]3=C(F)C=NC=N3)C)C1=CC=C(F)C=C1F | > 46
Cc1cccc(C)c1NC(=O)C(C)N.Cl (configuration not stated) | > 46
Clc1cccc(Cl)c1N=C1NCCN1 | > 46
CCN(CC)CCNC(=O)c1ccc(N)cc1 | > 46

Compound | IC50 [µM]
CCC(C)(Oc1ccc(C2(c3ccc(OC(C)(CC)C(=O)O)cc3)CCCCC2)cc1)C(=O)O (configuration not stated) | > 46
BrCCCBr.CN(C)CCCCCCN(C)C | > 46
Cc1cccc(C)c1NC(=O)CN1CCCC1 | > 46
Cc1ncc(C[n+]2csc(CCOP(=O)(O)O)c2C)c(N)n1.[Cl-] | > 46
O[C@H]1[C@](CC2)(C)[C@@](C)(C)[C@@H]2C1 | > 46
O=C1N(C(C(O)=O)=C(CSC4=NN=NN4C)CS2)[C@@]2([H])[C@@]([H])1NC([C@@H]([C@@](C=C5)=CC=C5O)NC(C3=C(O)C=C(C)N=C3)=O)=O | > 46
CCCCC(CC)COC(=O)C(C#N)=C(c1ccccc1)c1ccccc1 (configuration not stated) | > 46
COc1ccc(CCN(C)CCCN2CCc3cc(OC)c(OC)cc3CC2=O)cc1OC.Cl | > 46
CN1C(=O)COc2c(C(=O)NC3CN4CCC3CC4)cc(Cl)cc21 (configuration not stated) | > 46
c13c(C(\C(=C/N1C2CC2)C(O)=O)=O)c(c(c(c3F)N4C[C@@H](N[C@@H](C4)C)C)F)N | > 46
F[C@]2([C@](C)3CC4)[C@@H](O)C[C@]1(C)[C@@](OC(C)=O)([C@@](C)=O)CC[C@]([H])1[C@@]([H])2CCC3=CC4=O | > 46
C[C@H](Cn1cnc2c(N)ncnc21)OCP(=O)(O)O | > 46
O=C(/C=C/c1ccc(O)c(O)c1)O[C@@H]1C[C@@](OC(=O)/C=C/c2ccc(O)c(O)c2)(C(=O)O)C[C@@H](O)[C@@H]1O | > 46
NCCCC(O)(P(=O)([O-])O)P(=O)(O)O.O.O.O.[Na+] | > 46
OC[C@@H](O)[C@@H](O)[C@@H](CO)O | > 46
CCCCC1C(=O)N(c2ccccc2)N(c2ccc(O)cc2)C1=O (configuration not stated) | > 46
CC(NNC(=O)c1ccccc1)c1ccccc1 (configuration not stated) | > 46
O[C@H](C)[C@@H](N[C@]([C@@H]2C[C@@H](CCC)CN2C)=O)[C@@H]1[C@H](O)[C@H](O)[C@@H](O)[C@@H](SC)O1.Cl | > 46
C[C@H]1[C@H]2CC[C@H]3[C@@H]4CC=C5C[C@@H](N(C)C)CC[C@]5(C)[C@H]4CC[C@]23CN1C | > 46
CC1(C)CCC(C)(C)c2cc(NC(=O)c3ccc(C(=O)O)cc3)ccc21 | > 46
NC(=O)NNc1ccccc1 | > 46
Clc1ccccc1CN1CCc2sccc2C1 | > 46
